In PubChem BioAssay (NCI) one finds TGI data, which are given here for 14 compounds.

Test in all cases: NCI tumour cell line growth inhibition, 48 h
For assay [1], the system named is DMS 273 small cell lung.
The test system of assay [2] is LXFL 529 NSCLC.
The subject of assay [3] is KM20L2 colon.
Assay [4] has as its system DMS 114 small cell lung.
For assay [5], the system named is NCI-H522 lung.
Assay [6] concerns DLD-1 colon.
In assay [7] the test system is MALME-3M melanoma.
The test system of assay [8] is XF 498 CNS.
The subject of assay [9] is M19-MEL melanoma.
In assay [10] the test system is IGROV1 ovarian.
Assay [11] deals with SNB-78 CNS.

SMILES strings stand for the structures.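 Step 1: Grow cells in 96-well plates. Step 2: Expose to compound for 48 hours at 5 concentrations. Step 3: Interpolate endpoints linearly; if unreached, use highest concentration. TGI is the concentration that stops growth completely.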 A value given as a limit tells only on which side of the number the result lay.

As for `O=C1NCC2=C1CCC1c3ccccc3CCN21` (stereo unspecified), the TGI in [1], in [2], in [3], in assay [4], in assay [5] and in assay [6] was > 100 µM throughout. Further, the TGI in assay [7], in assay [8], in [9], in [10] and in assay [11] was > 100 µM in each case.
Consider `CC1(C)CC(C2CC(C)(C)CC(C)(C)[C@H]2O)[C@@H](O)C(C)(C)C1` (stereo partly specified), for which the TGI in [1], in assay [2], in assay [3], in [4], in [5] and in [7] was > 100 µM throughout. For the same compound, the TGI in [8], in [9] and in [10] was > 100 µM each time.
Consider `CSC(=S)Nc1cc(C)ccn1`, for which the TGI was > 100 µM in assay [5], > 100 µM in assay [7] and 58 µM in assay [10].
On to `O=[N+]([O-])c1ccc2nc(/C=C(\O)c3ccccc3)c(/C=C(\O)c3ccc(Cl)cc3)nc2c1`, for which the TGI in [5] is 79.7 µM; in assay [7], > 100 µM; in assay [10], > 100 µM.
Consider `O=C(N/N=C1\CCc2ccccc21)N/N=C1\CCc2ccccc21`, for which the TGI in assay [5], in assay [7] and in [10] was > 100 µM each time.
`COC(=O)[C@@H](COC(=O)/C=C/c1ccc(OC(C)=O)c(OC(C)=O)c1)NC(=O)/C=C/c1ccc(OC(C)=O)c(OC(C)=O)c1`: the TGI was 35.1 µM in assay [5], 29.2 µM in assay [7] and > 100 µM in assay [10].
Taken in the same sequence, the figures for `CC(C)Cn1cnnc1NS(=O)(=O)c1cc(C(=O)NN)c(Cl)cc1S` were > 10 µM, > 10 µM and > 10 µM.
Taken in the same sequence, the figures for `COc1ccc(-c2c(C(=O)Nc3ccccc3)c(-c3ccccc3)n(C3OC(CO)C(O)C(O)C3O)c(=S)c2C#N)cc1` (stereo unspecified) were > 100 µM, > 100 µM and > 100 µM.
Taken in the same sequence, the figures for `c1cc(-c2ccc(Oc3ccc(-c4ccncc4)cc3)cc2)ccn1` were > 79.4 µM, > 44 µM and > 100 µM.
Turning to `COc1cc([C@@H]2c3cc4c(cc3[C@@H](N=Cc3ccc(C(=O)O[C@H]5C[C@H]6OC[C@@]6(OC(C)=O)[C@H]6[C@H](OC(=O)c7ccccc7)[C@]7(O)C[C@H](OC(=O)[C@H](OC(=O)c8ccc(C=N[C@@H]9c%10cc%11c(cc%10[C@@H](c%10cc(OC)c(O)c(OC)c%10)[C@H]%10C(=O)OC[C@@H]%109)OCO%11)cc8)[C@@H](NC(=O)c8ccccc8)c8ccccc8)C(C)=C([C@@H](OC(C)=O)C(=O)[C@]56C)C7(C)C)cc3)C3COC(=O)C32)OCO4)cc(C)c1O` (stereo partly specified), the TGI in assay [5], in assay [7] and in assay [10] was > 50 µM each time.
Take `NC1=NC(=O)[C@H](CSCc2ccccc2)N1C(=O)OCc1ccccc1`: the TGI in [5], in assay [7] and in assay [10] was > 100 µM throughout.
Take `O=C(Nc1ccc(Cl)cc1)C(=O)C1=C(O)c2ccccc2OC1`: the TGI in assay [5], in assay [7] and in [10] was > 100 µM in each case.
Consider `NC(=S)NS(=O)(=O)c1ccc(F)cc1`, for which the TGI in [5], in assay [7] and in assay [10] was > 100 µM each time.
For the compound `CC(C)c1cc(C(C)C)c(P2(=O)CC3C(Cl)(Cl)C3(C)C2)c(C(C)C)c1` (stereo unspecified), the figures for the TGI in assay [5], in [7] and in assay [10] were 4 µM, 33.2 µM and 29.5 µM, respectively.
